{"source": "patent US9951039B2", "about": "“Pyrimidines for treatment of bacterial infections” (The Hong Kong Polytechnic University, priority 2016, dated 2018)", "key": {"[1]": {"test_system": "E. coli strain ATCC25922", "assay": "MIC, broth microdilution antimicrobial susceptibility test (CLSI)", "assay_type": "cell-based", "conditions": "Escherichia coli, ATCC25922; E. coli ATCC 25922; growth inhibited by ≥90%, 18 h; read-out: MIC^c: Minimum inhibitory concentration against E. coli", "description": "This example illustrates the evaluation of 2,4,6-trisubstituted pyrimidines 14 for their antimicrobial activities against the Gram positive S. aureus strain ATCC29213 and the Gram negative E. coli strain ATCC25922 by measuring their MIC, which is the lowest concentration of an antimicrobial agent that prevents visible growth of a microorganism in a broth dilution susceptibility test according to the standard method approved by the Clinical and Laboratory Standards Institute (CLSI) guidelines.^21\n(§1) Procedure of Antimicrobial susceptibility test: The MIC value of compounds was measured in the antimicrobial susceptibility test using the broth microdilution procedure in accordance with the CLSI guidelines.^21 Cation-adjusted Mueller Hinton broth (CA-MHB) was used for all the S. aureus strains in the assay. Cells in exponential phase of growth were diluted to approximately 5×10^5 cfu/mL. Stock solutions of each compound were freshly dissolved in dimethyl sulfoxide (DMSO). Then, serial dilutions of each compound in CA-MHB medium were added into 96-well microplate. The final percentage of DMSO in the assay was 1%. Control experiments were performed with 1% DMSO instead of the compound solution. After being incubated at 37° C. for 18 h, OD600 value of cells was measured on a microplate reader and the percentage of bacterial cell inhibition with respect to controls was calculated. The MIC value was defined as the lowest compound concentration at which the growth of bacteria was inhibited by ≥90%. Three independent assays were performed for each compound."}, "[2]": {"target": "T1, S. aureus FtsZ (Staphylococcus aureus, UniProt P0A031)", "T1 construct": "6-histidine tag; made in house; host or cells: E. coli BL21(DE3)", "T1 sequence (P0A031 1-390)": "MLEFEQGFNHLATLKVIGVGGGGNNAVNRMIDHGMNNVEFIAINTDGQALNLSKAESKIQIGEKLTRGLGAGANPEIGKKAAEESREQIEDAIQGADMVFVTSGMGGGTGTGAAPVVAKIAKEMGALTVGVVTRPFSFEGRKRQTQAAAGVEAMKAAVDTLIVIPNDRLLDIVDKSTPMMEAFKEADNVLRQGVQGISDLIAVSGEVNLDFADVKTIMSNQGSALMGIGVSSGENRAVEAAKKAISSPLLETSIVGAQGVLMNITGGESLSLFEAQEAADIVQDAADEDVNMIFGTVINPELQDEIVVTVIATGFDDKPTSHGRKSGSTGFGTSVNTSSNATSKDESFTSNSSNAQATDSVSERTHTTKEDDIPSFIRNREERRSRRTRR", "assay": "GTPase hydrolysis assay (CytoPhos phosphate assay)", "assay_type": "biochemical", "procedure": "Procedure for expression and purification of S. aureus FtsZ protein: S. aureus FtsZ protein was prepared as previous reported.^16a In brief, E. coli BL21(DE3) cells, transformed with a pRSET-A-S vector carrying S. aureus FtsZ with a 6-histidine tag attached, were streaked on a nutrient agar plate containing 50 μg/mL ampicillin. After overnight incubation at 37° C., a single colony was inoculated into 5 mL of Luria-Bertani (LB) medium in the presence of 50 μg/mL ampicillin, which was then incubated at 37° C., with shaking at 250 rpm for 16 h. The overnight culture was transferred into a fresh 2×TY medium in a dilution ratio of 1:100 and 50 μg/mL ampicillin was then added, followed by incubation at 37° C. with shaking at 250 rpm. When OD600 reached 0.8, protein expression was induced with 0.4 mM isopropyl-β-D-thiogalactopyranoside (IPTG) for 4 h. Cells were harvested by centrifugation at 9000 rpm for 20 min at 4° C. […]\nProcedure: The inhibitory effect of compound 14av_amine16 on GTPase hydrolysis activity was investigated according to the protocol described previously.^18 The GTPase activity of S. aureus FtsZ was estimated in a 96-well microplate using a CytoPhos phosphate assay Biochem Kit based on the manufacturer's instructions. […] The precipitated inorganic phosphate was quantified by measuring the absorbance at 650 nm in a microplate reader. […]"}, "[3]": {"test_system": "S. aureus ATCC BAA-41 (methicillin resistant)", "assay": "MIC against clinically isolated strain 4", "assay_type": "cell-based", "conditions": "Staphylococcus aureus, ATCCBAA41", "procedure": "as §1\n(§2) Results: Three compounds, namely 14av_amine16, 14dv_amine16 and 14dv_amine06, were selected to be tested against nine in-house clinically isolated bacterial strains including S. aureus ATCC29247, which is an ampicillin resistant strain, S. aureus ATCC BAA-41, ATCC BAA-1717, ATCC BAA-1720, ATCC 43300 which are methicillin resistant strains and four USA300 strains, (#417, #757, #1799 and #2690), which are the predominant strain type of community-associated MRSA strains in the United States."}, "[4]": {"test_system": "USA300 #757 (community-associated MRSA)", "assay": "MIC against clinically isolated strain 7", "assay_type": "cell-based, S. aureus", "conditions": "Staphylococcus aureus", "procedure": "as §1, §2"}, "[5]": {"test_system": "MRSA ATCC 43300", "assay": "Frequency of resistance (FOR) determination", "assay_type": "cell-based, S. aureus", "conditions": "8 folds of MIC, after 48 hours' incubation", "procedure": "Procedure: MRSA ATCC 43300 cells were grown to late-exponential phase (1×10^9 CFU/mL) and spread on agars plates containing 1% DMSO or compound 14av_amine16 at 8 folds of MIC level. The plates were incubated for 48 hours to allow resistant mutants to grow. The spontaneous FOR was calculated as the number of resistance colonies divided by the number of CFUs originally plated. The assay was performed in triplicates."}}, "data": [{"smiles": "CCC(CC)c1cc(CCN2CCCN(Cc3ccc(C(F)(F)F)cc3)CC2)nc(-c2ccncc2)n1", "note": "[Compound 14av_amine16, 1-(2-(6-(pentan-3-yl)-2-(pyridin-4-yl)pyrimidin-4-yl)ethyl)-4-(4-(trifluoromethyl)benzyl)-1,4-diazepane]", "values": [{"measurement": "MIC", "setting": "[1]", "result": "> 125", "unit": "µM"}, {"measurement": "inhibition at 50 µM", "setting": "[2]; compound at 50 μM", "result": "~20", "unit": "%"}, {"measurement": "inhibition at 75 µM", "setting": "[2]; compound at 75 μM", "result": "~25", "unit": "%"}, {"measurement": "MIC", "setting": "[3]", "result": 12, "unit": "µM"}, {"measurement": "MIC", "setting": "[4]", "result": 12, "unit": "µM"}, {"measurement": "colonies on plates treated with compound", "setting": "[5]", "result": "no colony was observed"}]}]}
